From patent publication US10858356B2, “Pyrazolopyridine derivative having GLP-1 receptor agonist effect” (Chugai Seiyaku Kabushiki Kaisha, priority 2016, dated 2020) come the findings set out here.

Like-named read-outs stand apart in the source and are kept apart here. Some results are limits rather than exact numbers.

For series [1], the system named is male cynomolgus monkeys. In words: Insulin secretion promoting and blood glucose lowering effects after intravenous glucose. The class given is in vivo, cynomolgus monkey. As to the method: Next, a 50% glucose solution (glucose administration weight to the monkey: 0.5 g/kg) was intravenously administered and a blood sample was collected every 5 min or 10 min to measure the plasma insulin and glucose concentrations. The area under the curve was calculated from the time course of each parameter after the drug administration to evaluate the insulin secretion promoting effect and the blood glucose lowering effect.

Series [2] concerns male cynomolgus monkeys. The class given is in vivo, cynomolgus monkey.
A short description of series [3]: Pharmacokinetics after oral administration. The class given is in vivo, cynomolgus monkey. To be noted: for Cmax / Tmax / AUC(0-t): male, cynomolgus monkey, plasma, calcium salt hydrate crystal (Sample 162a) suspension, n=2; for AUC(0-t): read-out: AUC0-24 h. As to the method: The plasma concentrations of the drug were determined by liquid chromatography tandem-mass spectrometry. The lower limit of quantification was 0.3 ng/mL.

The target in a further series is human GLP1R (Homo sapiens (Human), UniProt P43220). Put plainly: In vitro cAMP signal activation in human GLP1R stably-expressing cell line (hGLP1R-HEK293). Type of series: cell-based. To be noted: cAMP concentration in hGLP1R-HEK293; 100% = 1 nM human GLP-1 (7-37).
human GLP1R, sequence (P43220 24-463): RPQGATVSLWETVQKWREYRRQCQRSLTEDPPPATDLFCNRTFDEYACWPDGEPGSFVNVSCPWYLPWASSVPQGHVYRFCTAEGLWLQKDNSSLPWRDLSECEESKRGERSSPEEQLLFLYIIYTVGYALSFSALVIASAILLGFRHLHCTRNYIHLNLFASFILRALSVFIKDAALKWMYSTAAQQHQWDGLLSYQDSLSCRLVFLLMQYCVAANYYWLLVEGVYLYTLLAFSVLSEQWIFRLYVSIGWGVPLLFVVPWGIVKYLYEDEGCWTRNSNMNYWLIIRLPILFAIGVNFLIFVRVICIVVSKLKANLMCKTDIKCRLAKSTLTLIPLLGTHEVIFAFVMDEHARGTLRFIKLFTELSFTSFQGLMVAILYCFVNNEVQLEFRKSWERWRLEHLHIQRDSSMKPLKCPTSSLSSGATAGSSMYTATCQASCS
The mark [4] stands for this setting: continuous i.v. 40 min, steady-state plasma concentration 0.94 to 4.8 nmol/L, then i.v. glucose 0.5 g/kg, vs vehicle.

Turning to `Cc1cc(-n2nc3c(c2-n2ccn(-c4ccc5c(cnn5C)c4F)c2=O)[C@H](C)N(C(=O)c2cc4cc([C@H]5CCOC(C)(C)C5)ccc4n2[C@@]2(c4noc(=O)[nH]4)C[C@@H]2C)CC3)cc(C)c1F` [Example Compound 67, 3-[(1S,2S)-1-[5-[(4S)-2,2-dimethyloxan-4-yl]-2-[(4S)-2-(4-fluoro-3,5-dimethylphenyl)-3-[3-(4-fluoro-1-methylindazol-5-yl)-2-oxoimidazol-1-yl]-4-methyl-6,7-dihydro-4H-pyrazolo[4,3-c]pyridine-5-carbonyl]indol-1-yl]-2-methylcyclopropyl]-4H-1,2,4-oxadiazol-5-one], in the series with male cynomolgus monkeys [1] (setting [4]), the “area under the curve of insulin” value is “increase in the area under the curve of insulin” and the “area under the curve of plasma glucose” value is listed as “decrease in the area under the curve of plasma glucose”. Further, the “plasma concentration at which insulin secretion promoting and blood glucose lowering effects are equivalent to exenatide” value with male cynomolgus monkeys [1] (steady-state plasma concentration, i.v. infusion) was no less than 1.6 nmol/L. Moreover, the “degree of suppression of food intake compared with control drug” value with male cynomolgus monkeys [2] (oral 0.05 or 0.1 mg/kg vs exenatide s.c. 0.3 or 0.6 μg/kg) is “almost equivalent to the control drug exenatide”. Further, the food intake result with male cynomolgus monkeys [2] (oral, 5 consecutive days, 0.05 or 0.1 mg/kg, food intake for 90 min from 3 h after administration) is “suppressed the food intake in a dosage dependent manner”. Besides, the “time after oral administration at which plasma concentrations reached Cmax” value in series [3] (all dosages (0.05, 0.15, 0.45 and 1.35 mg/kg), oral) is reported as 2 h. Besides, in series [3] (0.05 mg/kg oral), the Cmax came out at 4.78 ng/mL, the Tmax was 2 h and the AUC(0-t) came out at 23.7 ng·h/mL. Also, in series [3] (0.15 mg/kg oral), the Cmax was found to be 20.7 ng/mL, the Tmax was 2 h and the AUC(0-t) was 135 ng·h/mL. Also, in series [3] (0.45 mg/kg oral), the Cmax came to 32 ng/mL, the time to peak (Tmax) was 2 h and the AUC(0-t) amounted to 208 ng·h/mL. Further, in series [3] (1.35 mg/kg oral), the Cmax was determined as 148 ng/mL, the Tmax was determined as 2 h and the AUC(0-t) stood at 1040 ng·h/mL. For the same molecule, in series [3] (oral 0.05 to 1.35 mg/kg), the “absorption in the intestinal tract and elimination” value was “dose-proportionally absorbed in the intestinal tract and eliminated”.

With `COCCn1ncc2c(F)c(-n3ccn(-c4c5c(nn4-c4cc(C)c(Cl)c(C)c4)CCN(C(=O)c4cc6cc([C@H]7CCOC(C)(C)C7)ccc6n4[C@@]4(c6noc(=O)[nH]6)C[C@@H]4C)[C@H]5C)c3=O)ccc21` [Example 43, 3-[(1S,2S)-1-[2-[(4S)-2-(4-chloro-3,5-dimethylphenyl)-3-[3-[4-fluoro-1-(2-methoxyethyl)indazol-5-yl]-2-oxoimidazol-1-yl]-4-methyl-6,7-dihydro-4H-pyrazolo[4,3-c]pyridine-5-carbonyl]-5-[(4S)-2,2-dimethyloxan-4-yl]indol-1-yl]-2-methylcyclopropyl]-4H-1,2,4-oxadiazol-5-one], the EC50 on human GLP1R is 1.5 nM.

`Cc1cc(-n2nc3c(c2-n2ccn(-c4ccc5c(cnn5C)c4)c2=O)[C@H](C)N(C(=O)c2cc4cc([C@H]5CCO[C@@H](C)C5)ccc4n2[C@@]2(c4noc(=O)[nH]4)C[C@@H]2C)CC3)cc(C)c1F` [compound 61, 3-[(1S,2S)-1-[2-[(4S)-2-(4-fluoro-3,5-dimethylphenyl)-4-methyl-3-[3-(1-methylindazol-5-yl)-2-oxoimidazol-1-yl]-6,7-dihydro-4H-pyrazolo[4,3-c]pyridine-5-carbonyl]-5-[(2S,4S)-2-methyloxan-4 yl]indol-1-yl]-2-methylcyclopropyl]-4H-1,2,4-oxadiazol-5-one] had an EC50 at human GLP1R of 1.6 nM.

At human GLP1R, `Cc1cc(-n2nc3c(c2-n2ccn(-c4ccc5c(cnn5C)c4)c2=O)CN(C(=O)c2cc4cc(C5CCOCC5)ccc4n2[C@@]2(c4noc(=O)[nH]4)C[C@@H]2C)CC3)cc(C)c1F` [compound 54, 3-[(1S,2S)-1-[2-[2-(4-fluoro-3,5-dimethylphenyl)-3-[3-(1-methylindazol-5-yl)-2-oxoimidazol-1-yl]-6,7-dihydro-4H-pyrazolo[4,3-c]pyridine-5-carbonyl]-5-(oxan-4-yl)indol-1-yl]-2-methylcyclopropyl]-4H-1,2,4-oxadiazol-5-one] displayed an EC50 of 3.9 nM.

As to `Cc1cc(-n2nc3c(c2-n2ccn(-c4ccc5c(cnn5CC5(C)COC5)c4F)c2=O)[C@H](C)N(C(=O)c2cc4cc(C5CCOCC5)ccc4n2[C@@]2(c4noc(=O)[nH]4)C[C@@H]2C)CC3)cc(C)c1F` [Example 29, 3-[(1S,2S)-1-[2-[(4S)-2-(4-fluoro-3,5-dimethylphenyl)-3-[3-[4-fluoro-1-[(3-methyloxetan-3-yl)methyl]indazol-5-yl]-2-oxoimidazol-1-yl]-4-methyl-6,7-dihydro-4H-pyrazolo[4,3-c]pyridine-5-carbonyl]-5-(oxan-4-yl)indol-1-yl]-2-methylcyclopropyl]-4H-1,2,4-oxadiazol-5-one], it took 1.4 nM to reach a half-maximal effect at human GLP1R (EC50).

For the molecule `CCc1nccc(-c2ccc3c(c2)cc(C(=O)N2CCc4nn(-c5cc(C)c(F)c(C)c5)c(-n5ccn(-c6ccc7c(cnn7C)c6)c5=O)c4C2)n3[C@@]2(c3noc(=O)[nH]3)C[C@@H]2C)c1C` [Example 2, 3-[(1S,2S)-1-[5-(2-ethyl-3-methylpyridin-4-yl)-2-[2-(4-fluoro-3,5-dimethylphenyl)-3-[3-(1-methylindazol-5-yl)-2-oxoimidazol-1-yl]-6,7-dihydro-4H-pyrazolo[4,3-c]pyridine-5-carbonyl]indol-1-yl]-2-methylcyclopropyl]-4H-1,2,4-oxadiazol-5-one], the EC50 at human GLP1R was 5.6 nM.
